According to PubChem BioAssay (NCI):
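At the GI50, growth is halved. At the TGI there is no net growth.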

How the values were obtained:
Test in all cases: NCI-60 cell line screen, 384-well format
UACC-257 melanoma = tested on: UACC-257 melanoma
SF-295 CNS = tested on: SF-295 CNS
BT-549 breast = tested on: BT-549 breast
MCF7 breast = tested on: MCF7 breast
IGROV1 ovarian = tested on: IGROV1 ovarian
M14 melanoma = tested on: M14 melanoma
SK-MEL-28 melanoma = tested on: SK-MEL-28 melanoma
MDA-MB-468 breast = tested on: MDA-MB-468 breast
NCI-H23 lung = tested on: NCI-H23 lung
OVCAR-3 ovarian = tested on: OVCAR-3 ovarian
HS 578T breast = tested on: HS 578T breast
MDA-MB-231 breast = tested on: MDA-MB-231 breast
SNB-75 CNS = tested on: SNB-75 CNS
NCI-H522 lung = tested on: NCI-H522 lung
SN12C renal = tested on: SN12C renal
COLO 205 colon = tested on: COLO 205 colon
SW-620 colon = tested on: SW-620 colon
MOLT-4 leukemia = tested on: MOLT-4 leukemia
U251 glioblastoma = tested on: U251 glioblastoma
HT29 colon = tested on: HT29 colon
NCI-H226 lung = tested on: NCI-H226 lung
SK-MEL-2 melanoma = tested on: SK-MEL-2 melanoma
HL-60(TB) leukemia = tested on: HL-60(TB) leukemia
A549 NSCLC = tested on: A549 NSCLC
UO-31 renal = tested on: UO-31 renal
HOP-62 NSCLC = tested on: HOP-62 NSCLC
KM12 colon = tested on: KM12 colon
HCT-15 colon = tested on: HCT-15 colon
CAKI-1 renal = tested on: CAKI-1 renal
SK-OV-3 ovarian = tested on: SK-OV-3 ovarian
SK-MEL-5 melanoma = tested on: SK-MEL-5 melanoma
RXF 393 renal = tested on: RXF 393 renal
DU-145 prostate = tested on: DU-145 prostate
OVCAR-8 ovarian = tested on: OVCAR-8 ovarian
SR leukemia = tested on: SR leukemia
OVCAR-5 ovarian = tested on: OVCAR-5 ovarian
EKVX NSCLC = tested on: EKVX NSCLC
NCI-H322M lung = tested on: NCI-H322M lung
ACHN renal = tested on: ACHN renal
UACC-62 melanoma = tested on: UACC-62 melanoma
K-562 leukemia = tested on: K-562 leukemia
786-0 renal = tested on: 786-0 renal
PC-3 prostate = tested on: PC-3 prostate
SNB-19 CNS = tested on: SNB-19 CNS
NCI-H460 NSCLC = tested on: NCI-H460 NSCLC
HCT-116 colon = tested on: HCT-116 colon
MALME-3M melanoma = tested on: MALME-3M melanoma
T-47D breast = tested on: T-47D breast
HOP-92 NSCLC = tested on: HOP-92 NSCLC
A498 renal = tested on: A498 renal
SF-539 CNS = tested on: SF-539 CNS
MDA-MB-435 melanoma = tested on: MDA-MB-435 melanoma
OVCAR-4 ovarian = tested on: OVCAR-4 ovarian
SF-268 CNS = tested on: SF-268 CNS
TK-10 renal = tested on: TK-10 renal

COC1(C(=O)N[C@@H](C)c2ccc(-n3cc(F)cn3)nc2)CCC(c2nc(C)cc(Nc3cc(C)[nH]n3)n2)CC1 (stereo not given in full)
GI50 (UACC-257 melanoma): 15.7 µM
TGI (UACC-257 melanoma): 29.3 µM
GI50 (SF-295 CNS): 1.39 µM
TGI (SF-295 CNS): 4.21 µM
GI50 (BT-549 breast): 0.813 µM
TGI (BT-549 breast): 2.56 µM
GI50 (MCF7 breast): 2 µM
TGI (MCF7 breast): 14.4 µM
GI50 (IGROV1 ovarian): 0.304 µM
TGI (IGROV1 ovarian): 1.37 µM
GI50 (M14 melanoma): 11.3 µM
TGI (M14 melanoma): 23.4 µM
GI50 (SK-MEL-28 melanoma): 12 µM
TGI (SK-MEL-28 melanoma): 24.5 µM
GI50 (MDA-MB-468 breast): 1.74 µM
TGI (MDA-MB-468 breast): 4.8 µM
GI50 (NCI-H23 lung): 0.629 µM
TGI (NCI-H23 lung): 10.6 µM
GI50 (OVCAR-3 ovarian): 1.67 µM
TGI (OVCAR-3 ovarian): 12.8 µM
GI50 (HS 578T breast): 0.253 µM
TGI (HS 578T breast): 1.58 µM
GI50 (MDA-MB-231 breast): 2.6 µM
TGI (MDA-MB-231 breast): 14 µM
GI50 (SNB-75 CNS): 0.285 µM
TGI (SNB-75 CNS): 1.32 µM
GI50 (NCI-H522 lung): 1.19 µM
TGI (NCI-H522 lung): 3.11 µM
GI50 (SN12C renal): 0.493 µM
TGI (SN12C renal): 10 µM
GI50 (COLO 205 colon): 13.8 µM
TGI (COLO 205 colon): 26.9 µM
GI50 (SW-620 colon): 2.58 µM
TGI (SW-620 colon): 17 µM
GI50 (MOLT-4 leukemia): 1.84 µM
TGI (MOLT-4 leukemia): 5.62 µM
GI50 (U251 glioblastoma): 1.54 µM
TGI (U251 glioblastoma): 12.3 µM
GI50 (HT29 colon): 4.94 µM
TGI (HT29 colon): 19.1 µM
GI50 (NCI-H226 lung): 0.246 µM
TGI (NCI-H226 lung): 2.08 µM
GI50 (SK-MEL-2 melanoma): 11 µM
TGI (SK-MEL-2 melanoma): 23.1 µM
GI50 (HL-60(TB) leukemia): 5.4 µM
TGI (HL-60(TB) leukemia): 18.5 µM
GI50 (A549 NSCLC): 2.41 µM
TGI (A549 NSCLC): 12 µM
GI50 (UO-31 renal): 1.14 µM
TGI (UO-31 renal): 2.78 µM
GI50 (HOP-62 NSCLC): 1.46 µM
TGI (HOP-62 NSCLC): 6.13 µM
GI50 (KM12 colon): 5.12 µM
TGI (KM12 colon): 18.3 µM
GI50 (HCT-15 colon): 4.58 µM
TGI (HCT-15 colon): 17.2 µM
GI50 (CAKI-1 renal): 1.28 µM
TGI (CAKI-1 renal): 2.69 µM
GI50 (SK-OV-3 ovarian): 0.605 µM
TGI (SK-OV-3 ovarian): 2.64 µM
GI50 (SK-MEL-5 melanoma): 2.3 µM
TGI (SK-MEL-5 melanoma): 11.2 µM
GI50 (RXF 393 renal): 0.138 µM
TGI (RXF 393 renal): 0.671 µM
GI50 (DU-145 prostate): 1.72 µM
TGI (DU-145 prostate): 4.04 µM
GI50 (OVCAR-8 ovarian): 3.35 µM
TGI (OVCAR-8 ovarian): 12.9 µM
GI50 (SR leukemia): 2.13 µM
TGI (SR leukemia): 5.27 µM
GI50 (OVCAR-5 ovarian): 2.31 µM
TGI (OVCAR-5 ovarian): 13.9 µM
GI50 (EKVX NSCLC): 0.545 µM
TGI (EKVX NSCLC): 2.29 µM
GI50 (NCI-H322M lung): 2.12 µM
TGI (NCI-H322M lung): 11.1 µM
GI50 (ACHN renal): 0.896 µM
TGI (ACHN renal): 4.45 µM
GI50 (UACC-62 melanoma): 5.55 µM
TGI (UACC-62 melanoma): 18.5 µM
GI50 (K-562 leukemia): 1.7 µM
TGI (K-562 leukemia): 11.6 µM
GI50 ([…]-0 renal): 1.82 µM
TGI (786-0 renal): 6.42 µM
GI50 (PC-3 prostate): 3.42 µM
TGI (PC-3 prostate): 15.7 µM
GI50 (SNB-19 CNS): 3.69 µM
TGI (SNB-19 CNS): 18.1 µM
GI50 (NCI-H460 NSCLC): 0.0527 µM
TGI (NCI-H460 NSCLC): 13.7 µM
GI50 (HCT-116 colon): 4.04 µM
TGI (HCT-116 colon): 17.3 µM
GI50 (MALME-3M melanoma): 11.3 µM
TGI (MALME-3M melanoma): 23.6 µM
GI50 (T-47D breast): 2.28 µM
TGI (T-47D breast): 10.7 µM
GI50 (HOP-92 NSCLC): 0.691 µM
TGI (HOP-92 NSCLC): 2.67 µM
GI50 (A498 renal): 1.83 µM
TGI (A498 renal): 4.4 µM
GI50 (SF-539 CNS): 0.226 µM
TGI (SF-539 CNS): 1.12 µM
GI50 (MDA-MB-435 melanoma): 11.7 µM
TGI (MDA-MB-435 melanoma): 24.1 µM
GI50 (OVCAR-4 ovarian): 2.12 µM
TGI (OVCAR-4 ovarian): 17.8 µM
GI50 (SF-268 CNS): 1.38 µM
TGI (SF-268 CNS): 3.69 µM
GI50 (TK-10 renal): 1.4 µM
TGI (TK-10 renal): 3.93 µM
